For the assay, the system named is T cells stimulated by allogeneic DCs. Put plainly: Allogeneic T-cell response: lymphocyte proliferation induced by allogeneic dendritic cells, 3[H]-thymidin incorporation. The class given is cell-based, human. The following applies: 6 days. The source says:
DCs were generated from CD14-positive blood monocytes as previously described ("Schuler G. and N. Romani", 1997, Adv. Exp. Med. Biol. 417:7-13). Briefly, peripheral blood mononuclear cells of an HLA-typed healthy donor were separated by density gradient centrifugation and CD14-positive monocytes were isolated by adherence to culture dishes. Non-adherent cells were discarded. After culture of monocytes in the presence of human rGM-CSF (666 Units/ml) and rIL-4 (1000 Units/ml) for 7 days, rTNF-α (10 ng/ml) was added for an additional 2 days to induce maturation of DC. Characterization of DC phenotype was performed by flow cytometry using the following mouse monoclonal antibodies: anti-CD 14-FITC, anti-HLA-DR-FITC, anti-CD 1a-PE, anti-CD86-PE, and anti-CD83-PE (BD Biosciences Heidelberg, Germany). DCs were kept in liquid nitrogen until use.
• (a) Allogeneic T-cell response. DCs were infected with recombinant IDO-adeno-GFP (DC-IDO-GFP), IDO-adeno (DC-IDO) or with control adenoviruses (DC-adeno) at a MOI (multiplicity of infection) up to 500 for 2 days. […] After 5 days, ^3[H]-thymidin was added for 12hrs and the number of counts (counts per minute = cpm) determined in a (3-counter (Inotech Biosystems, Lansing, MI). In order to verify whether IDO expression or adenovirus infection harm the DCs, 10^5 cells were infected with IDO-adeno-GFP, IDO-adenovirus, or adenovirus only at a stepwise decreasing MOI (500, 250, 125, ........ 3.9) and cell viability was measured in FACS following double staining with 7-AAD and anti-CD83 antibody-PE. The percentage of dead cells never exceeded 30% for any MOI following IDO-adeno-GFP- or IDO-adeno-infection and 40% following adenovirus(control)-infection. […] After 2 days, cell proliferation was assessed by measuring ^3[H]-thymidin incorporation (cpm) as described. • (c) Tryptophan metabolite titration curves. […] After 2 days, ^3[H] thymidin was added and the number of counts recorded. […] After another 2 days, ^3[H] thymidin was added and cpm determined. […]

Structures are written as SMILES. pIC50: −log10 of the molar value.

As to `Nc1ccccc1C(=O)CC(N)C(=O)O` (centres unmarked) [kynurenine], the “inhibition of proliferation of T cells stimulated by allogeneic DCs (in words)” value is listed as “completely inhibit the proliferation of T cells”. Where the note is “Homo sapiens, T-cell, 144 h, 3[H]-thymidin incorporation, read-out: 50% inhibition (I50) of proliferation of T cells stimulated by allogeneic DCs”, the pIC50 was 3.80.
